This experiment deals with hypertension provoked by angiotensin-II (Hypertensin (CIBA) infusion). Briefly: Antagonistic (hypotensive) effect on Hypertensin-infused narcotized male cats. It counts as in vivo, cat. How it is done:
The antagonistic effects of the new compounds of the formula (I) were investigated on narcotized male cats. After treating the animals with a ganglion blocking agent and bisecting the cervical vagus nerves on both sides, the animals were treated with an infusion of Hypertensin (CIBA) at a rate of 0.5 μg/kg/min. When the blood pressure of the animals reached a steady, increased level, the substance to be tested was administered either intravenously or subcutaneously in physiological saline solution or as an aqueous solution which also contained a carrier. The blood pressure drop was measured in mm Hg units, and the extent of decrease was expressed in percents related to the value before treatment. The statistical evaluation was performed on the basis of the blood pressure differences, by Student's single sample "t" test. The term "duration of effect" denotes the period elapsed until the observation of the last still significant (p±5%) blood pressure difference.

[1] abbreviates: s.c., carboxymethyl cellulose (CMC) carrier, dose 100 μg/kg.
Setting [2] is: s.c., carboxymethyl cellulose (CMC) carrier, dose 200 μg/kg.
The mark [3] stands for this setting: s.c., gelatine carrier, dose 200 μg/kg.
[4] abbreviates: s.c., physiological saline, dose 100 μg/kg.
Setting [5] is: s.c., physiological saline, dose 200 μg/kg.

From patent publication US4330532A, “Angiotensin-II analogues with antagonizing effects, containing an α-hydroxycarboxylic acid residue in position 8, and a process for the preparation thereof” (Richter Gedeon Vegyeszeti Gyar Rt., priority 1980, dated 1982) come the findings set out here.

For the molecule `CNCC(=O)N[C@@H](CCCN=C(N)N)C(=O)N[C@H](C(=O)N[C@@H](Cc1ccc(O)cc1)C(=O)N[C@H](C(=O)N[C@@H](Cc1cnc[nH]1)C(=O)N1CCC[C@H]1C(=O)N[C@@H](C)C(=O)O)C(C)C)C(C)C` [Saralasin, (Sar^1, Ala^8)-angiotensin-II], the “blood pressure drop, extent of decrease in percents related to the value before treatment” value (i.v., dose 10 μg/kg) came to 32%; the “blood pressure drop, extent of decrease in percents related to the value before treatment” value under setting [1] is given as 23%; the “blood pressure drop, extent of decrease in percents related to the value before treatment” value under setting [2] came to 28%; the “blood pressure drop, extent of decrease in percents related to the value before treatment” value under setting [3] worked out at 23%; the “blood pressure drop, extent of decrease in percents related to the value before treatment” value under setting [4] came out at 29%; the “blood pressure drop, extent of decrease in percents related to the value before treatment” value under setting [5] amounted to 24%. The duration of effect is 15 min (i.v., dose 10 μg/kg); 45 min under setting [1]; 90 min under setting [2]; “.phi” under setting [3]; 60 min under setting [4]; 45 min under setting [5].
